Results from patent publication US20120277517A1, “Formulation and Methods for Enhanced Interventional Image-Guided Therapy of Cancer” (The Johns Hopkins University, priority 2011, published 2012).

Tested on: Hep3B cells
Assay: Intratumoral injection with or without AMF hyperthermia in mice with subcutaneous Hep3B tumors
Type: in vivo, mouse
Conditions: may be attributed to hyperthermia
Source text: In another exemplary experiment, Hep3B cells were implanted by subcutaneous injection of 3×10^6 Hep3B cells suspended in PBS into the right flank of each mouse that was randomly assigned into 2 main groups (heated and unheated) that were further divided into three subgroups. When tumors reached 100 mm^3, these received intratumoral injections of T-C formulation, BNF particles alone, or PBS (3 subgroups). The heated group (9 mice) received AMF hyperthermia. Two mice from each subgroup were euthanized 24 hours following treatment, and the remaining one was euthanized when tumor in the PBS group reached 2000 mm^3.
For AMF exposure, each mouse was placed in a chamber constructed from a standard polypropylene 50-mL conical centrifuge tube that was positioned in the center of the solenoid coil. Prior to AMF therapy, each mouse received intraperitoneal injections of ketamine/xylazine (anesthesia) at an approximate dose of a 200-μL injection. Each mouse was placed in the coil for 30 min and exposed to one of the following AMF amplitudes: 0, 24, or 60 kA/m. […] During AMF exposure, mice were placed into the AMF inductor coil and therefore exposed to maximum magnetic field, corresponding to the measured (by field probe) field. Rectal and tumor temperatures were measured at one-second intervals for each mouse exposed to AMF using fiber optic temperature probes.

Q: For `COc1cccc2c1C(=O)c1c(O)c3c(c(O)c1C2=O)C[C@@](O)(C(=O)CO)C[C@@H]3O[C@H]1C[C@H](N)[C@H](O)[C@H](C)O1` [doxorubicin], which degradation of doxorubicin is on record?
A: 7-8%
